Blank lines part the entries; values can stand above or below the molecule they belong to.
How the values were obtained:
[1] = biological target: T1, Sodium/nucleoside cotransporter 1 (Homo sapiens, UniProt O00337); assay: Inhibition of human CNT1
T1 sequence (O00337 whole entry): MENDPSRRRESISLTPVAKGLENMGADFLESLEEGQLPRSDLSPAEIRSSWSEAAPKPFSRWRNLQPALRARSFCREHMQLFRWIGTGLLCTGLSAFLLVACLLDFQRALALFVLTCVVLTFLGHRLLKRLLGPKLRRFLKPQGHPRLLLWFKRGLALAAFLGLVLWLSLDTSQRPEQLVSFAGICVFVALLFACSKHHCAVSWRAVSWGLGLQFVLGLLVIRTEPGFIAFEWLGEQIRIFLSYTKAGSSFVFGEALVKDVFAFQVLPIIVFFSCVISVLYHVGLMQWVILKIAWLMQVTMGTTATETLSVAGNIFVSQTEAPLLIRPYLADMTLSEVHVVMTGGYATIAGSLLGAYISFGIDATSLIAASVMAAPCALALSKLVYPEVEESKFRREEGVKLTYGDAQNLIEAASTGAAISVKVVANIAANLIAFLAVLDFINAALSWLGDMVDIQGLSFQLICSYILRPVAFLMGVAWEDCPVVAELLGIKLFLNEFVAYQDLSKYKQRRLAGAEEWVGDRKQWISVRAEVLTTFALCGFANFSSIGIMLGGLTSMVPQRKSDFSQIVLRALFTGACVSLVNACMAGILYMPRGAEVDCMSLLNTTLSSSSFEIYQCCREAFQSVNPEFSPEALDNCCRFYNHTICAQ

[2] = biological target: T2, Sodium/nucleoside cotransporter 2 (Homo sapiens, UniProt O43868); assay: Inhibition of human CNT2
T2 sequence (O43868 whole entry): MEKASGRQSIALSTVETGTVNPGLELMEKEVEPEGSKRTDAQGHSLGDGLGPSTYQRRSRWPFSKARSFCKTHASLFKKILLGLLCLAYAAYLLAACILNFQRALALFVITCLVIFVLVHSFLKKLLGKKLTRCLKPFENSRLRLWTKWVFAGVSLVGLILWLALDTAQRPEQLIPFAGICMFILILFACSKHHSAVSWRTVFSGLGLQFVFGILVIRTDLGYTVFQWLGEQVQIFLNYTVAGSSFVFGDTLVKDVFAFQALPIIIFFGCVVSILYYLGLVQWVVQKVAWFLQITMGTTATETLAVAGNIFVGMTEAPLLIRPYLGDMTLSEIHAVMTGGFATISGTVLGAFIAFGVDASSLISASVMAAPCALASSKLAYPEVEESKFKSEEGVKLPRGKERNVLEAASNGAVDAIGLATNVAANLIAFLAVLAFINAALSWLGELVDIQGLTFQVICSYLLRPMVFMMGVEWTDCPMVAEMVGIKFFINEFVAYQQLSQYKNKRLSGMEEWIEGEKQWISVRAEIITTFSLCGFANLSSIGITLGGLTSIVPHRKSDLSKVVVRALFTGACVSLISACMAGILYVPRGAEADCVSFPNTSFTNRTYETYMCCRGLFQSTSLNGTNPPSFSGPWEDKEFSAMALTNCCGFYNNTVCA

[3] = biological target: T3, Equilibrative nucleoside transporter 1 (Homo sapiens, UniProt Q99808); assay: Inhibition of human recombinant ENT1 assessed as inhibition of [3H] uridine transport
T3 sequence (Q99808 whole entry): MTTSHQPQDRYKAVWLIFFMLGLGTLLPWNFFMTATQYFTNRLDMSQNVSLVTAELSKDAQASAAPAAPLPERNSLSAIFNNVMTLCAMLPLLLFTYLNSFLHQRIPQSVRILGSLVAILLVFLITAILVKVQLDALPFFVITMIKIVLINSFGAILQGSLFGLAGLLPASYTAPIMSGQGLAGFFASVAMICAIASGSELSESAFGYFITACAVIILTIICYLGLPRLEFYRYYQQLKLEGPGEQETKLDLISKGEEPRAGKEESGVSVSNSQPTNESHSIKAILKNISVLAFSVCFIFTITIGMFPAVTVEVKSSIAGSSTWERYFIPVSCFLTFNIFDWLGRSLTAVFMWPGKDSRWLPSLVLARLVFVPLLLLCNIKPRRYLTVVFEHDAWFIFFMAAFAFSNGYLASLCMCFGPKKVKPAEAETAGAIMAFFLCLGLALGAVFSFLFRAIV

[4] = biological target: T4, P2Y purinoceptor 1 (Homo sapiens, UniProt P47900); assay: Agonist activity at human P2Y1R in human 1321N1 cells; format: cell-based
T4 sequence (P47900 whole entry): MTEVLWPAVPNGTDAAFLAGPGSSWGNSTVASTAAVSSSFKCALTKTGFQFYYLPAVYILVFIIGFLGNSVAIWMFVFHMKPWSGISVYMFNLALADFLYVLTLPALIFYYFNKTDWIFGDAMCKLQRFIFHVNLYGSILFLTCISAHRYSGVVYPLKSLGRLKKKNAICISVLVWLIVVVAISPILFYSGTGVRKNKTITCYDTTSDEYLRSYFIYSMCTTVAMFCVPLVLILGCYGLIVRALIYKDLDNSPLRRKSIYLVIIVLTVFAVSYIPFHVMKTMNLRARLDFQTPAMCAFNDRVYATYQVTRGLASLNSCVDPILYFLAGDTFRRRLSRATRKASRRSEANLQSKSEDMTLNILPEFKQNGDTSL

[5] = biological target: T4, P2Y purinoceptor 1; assay: Agonist activity at human P2Y1R in human 1321N1 cells assessed as efficacy relative to control; format: cell-based
[6] = biological target: Mu-type opioid receptor (Homo sapiens, UniProt P35372); assay: Binding affinity to MOR (unknown origin)
Sequence of Mu-type opioid receptor (P35372 whole entry): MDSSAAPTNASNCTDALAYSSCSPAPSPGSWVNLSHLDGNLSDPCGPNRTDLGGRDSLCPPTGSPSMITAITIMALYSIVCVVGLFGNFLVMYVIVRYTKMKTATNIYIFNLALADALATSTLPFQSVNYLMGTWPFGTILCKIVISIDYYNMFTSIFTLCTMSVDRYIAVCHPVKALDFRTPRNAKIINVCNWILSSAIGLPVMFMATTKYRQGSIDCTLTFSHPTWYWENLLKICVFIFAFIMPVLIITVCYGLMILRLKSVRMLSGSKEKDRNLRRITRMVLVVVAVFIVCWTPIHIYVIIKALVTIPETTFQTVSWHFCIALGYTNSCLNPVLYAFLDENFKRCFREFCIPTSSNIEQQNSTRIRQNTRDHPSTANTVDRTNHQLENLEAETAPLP

[7] = biological target: T5, Kappa-type opioid receptor (Homo sapiens, UniProt P41145); assay: Binding affinity to KOR (unknown origin)
T5 sequence (P41145 whole entry, the tested form may be a part): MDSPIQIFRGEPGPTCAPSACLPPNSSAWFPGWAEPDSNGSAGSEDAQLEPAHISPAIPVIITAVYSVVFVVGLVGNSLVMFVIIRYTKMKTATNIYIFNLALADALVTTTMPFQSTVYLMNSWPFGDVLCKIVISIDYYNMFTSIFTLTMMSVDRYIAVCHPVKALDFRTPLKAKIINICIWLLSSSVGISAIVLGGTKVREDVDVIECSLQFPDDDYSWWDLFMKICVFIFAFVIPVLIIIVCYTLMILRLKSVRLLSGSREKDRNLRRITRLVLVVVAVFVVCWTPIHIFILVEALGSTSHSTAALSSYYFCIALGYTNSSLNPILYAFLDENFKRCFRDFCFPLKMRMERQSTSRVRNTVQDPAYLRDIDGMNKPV

[8] = biological target: T5, Kappa-type opioid receptor; assay: Activation of human KOR assessed as beta-arrestin 2 recruitment at 30 uM by PathHunter enzyme fragment complementation assay relative to control
[9] = biological target: Delta-type opioid receptor (Homo sapiens, UniProt P41143); assay: Binding affinity to DOR (unknown origin)
Sequence of Delta-type opioid receptor (P41143 whole entry): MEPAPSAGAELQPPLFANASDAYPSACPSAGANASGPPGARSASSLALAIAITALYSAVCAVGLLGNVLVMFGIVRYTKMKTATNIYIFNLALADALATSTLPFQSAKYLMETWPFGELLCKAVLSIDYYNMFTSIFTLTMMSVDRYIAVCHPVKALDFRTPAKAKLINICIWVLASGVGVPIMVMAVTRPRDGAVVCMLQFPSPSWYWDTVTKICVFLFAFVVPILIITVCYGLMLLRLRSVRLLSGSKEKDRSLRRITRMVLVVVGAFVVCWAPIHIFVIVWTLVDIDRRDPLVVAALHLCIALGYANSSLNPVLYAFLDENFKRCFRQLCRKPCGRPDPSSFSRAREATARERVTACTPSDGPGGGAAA

[10] = biological target: T6, Adenosine receptor A3 (Homo sapiens, UniProt P0DMS8); assay: Binding affinity to human adenosine A3 receptor assessed as inhibition constant
T6 sequence (P0DMS8 whole entry): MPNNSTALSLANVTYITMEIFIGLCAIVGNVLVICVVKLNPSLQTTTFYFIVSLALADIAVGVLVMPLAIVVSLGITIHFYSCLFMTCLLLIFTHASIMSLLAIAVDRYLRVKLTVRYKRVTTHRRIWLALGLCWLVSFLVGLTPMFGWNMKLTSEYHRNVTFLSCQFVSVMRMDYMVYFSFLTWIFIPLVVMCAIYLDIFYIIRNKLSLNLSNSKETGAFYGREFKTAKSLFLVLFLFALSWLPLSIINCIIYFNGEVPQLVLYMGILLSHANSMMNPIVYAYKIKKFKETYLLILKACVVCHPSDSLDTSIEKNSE

[11] = biological target: T7, Adenosine receptor A3 (Mus musculus, UniProt Q61618); assay: Binding affinity to mouse adenosine A3 receptor assessed as inhibition constant
T7 sequence (Q61618 whole entry): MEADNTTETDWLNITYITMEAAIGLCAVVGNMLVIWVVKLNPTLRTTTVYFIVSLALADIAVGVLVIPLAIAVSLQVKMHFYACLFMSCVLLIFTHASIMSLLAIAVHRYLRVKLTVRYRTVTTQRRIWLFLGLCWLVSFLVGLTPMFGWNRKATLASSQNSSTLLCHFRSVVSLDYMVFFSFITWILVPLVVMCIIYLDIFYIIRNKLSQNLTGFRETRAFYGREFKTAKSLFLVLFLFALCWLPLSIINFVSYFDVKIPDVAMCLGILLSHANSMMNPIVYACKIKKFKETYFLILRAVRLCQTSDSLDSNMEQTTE

[12] = Inhibition of S-adenosyl homocysteine hydrolase (unknown origin) relative to control; settings: Homo sapiens; concentration not given here
[13] = biological target: Adenosine receptor A2b (Homo sapiens, UniProt P29275); assay: Binding affinity to human adenosine A2B receptor assessed as inhibition constant
Sequence of Adenosine receptor A2b (P29275 whole entry): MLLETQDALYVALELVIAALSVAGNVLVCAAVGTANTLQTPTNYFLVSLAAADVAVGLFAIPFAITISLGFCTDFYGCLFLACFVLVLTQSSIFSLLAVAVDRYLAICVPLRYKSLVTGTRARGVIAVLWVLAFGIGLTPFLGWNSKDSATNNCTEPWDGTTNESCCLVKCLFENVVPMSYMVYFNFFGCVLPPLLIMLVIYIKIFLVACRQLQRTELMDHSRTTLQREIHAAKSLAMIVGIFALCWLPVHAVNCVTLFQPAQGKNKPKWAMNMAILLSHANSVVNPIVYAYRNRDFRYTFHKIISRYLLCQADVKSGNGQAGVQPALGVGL

[14] = biological target: Adenosine receptor A1 (Rattus norvegicus, UniProt P25099); assay: Binding affinity to rat adenosine A1 receptor assessed as inhibition constant
Sequence of Adenosine receptor A1 (Rattus norvegicus, UniProt P25099) (P25099 whole entry): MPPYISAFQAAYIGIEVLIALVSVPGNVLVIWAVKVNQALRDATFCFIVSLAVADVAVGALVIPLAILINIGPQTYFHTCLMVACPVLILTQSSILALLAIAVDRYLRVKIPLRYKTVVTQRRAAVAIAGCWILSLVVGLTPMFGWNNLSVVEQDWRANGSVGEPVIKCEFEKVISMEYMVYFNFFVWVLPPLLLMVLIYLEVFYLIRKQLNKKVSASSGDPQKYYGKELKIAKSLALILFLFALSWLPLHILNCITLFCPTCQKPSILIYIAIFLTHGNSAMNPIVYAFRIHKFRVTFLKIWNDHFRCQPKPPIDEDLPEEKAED

[15] = biological target: Adenosine receptor A2a (Homo sapiens, UniProt P29274); assay: Binding affinity to human adenosine A2A receptor assessed as inhibition constant
Sequence of Adenosine receptor A2a (P29274 whole entry): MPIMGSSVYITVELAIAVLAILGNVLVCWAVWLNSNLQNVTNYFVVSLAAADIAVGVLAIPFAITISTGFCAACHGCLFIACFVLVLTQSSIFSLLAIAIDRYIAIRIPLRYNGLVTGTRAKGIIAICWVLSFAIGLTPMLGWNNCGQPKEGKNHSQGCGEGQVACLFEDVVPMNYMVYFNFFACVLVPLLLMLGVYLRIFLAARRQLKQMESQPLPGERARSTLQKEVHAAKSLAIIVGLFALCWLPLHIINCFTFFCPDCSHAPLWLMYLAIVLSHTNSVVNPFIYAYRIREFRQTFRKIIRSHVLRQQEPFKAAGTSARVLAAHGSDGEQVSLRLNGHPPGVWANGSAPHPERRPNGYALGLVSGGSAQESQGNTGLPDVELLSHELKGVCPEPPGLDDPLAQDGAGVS

[16] = biological target: T8, 5-hydroxytryptamine receptor 2C (Homo sapiens, UniProt P28335); assay: Binding affinity to 5HT2C receptor (unknown origin) assessed as inhibition constant
T8 sequence (P28335 whole entry): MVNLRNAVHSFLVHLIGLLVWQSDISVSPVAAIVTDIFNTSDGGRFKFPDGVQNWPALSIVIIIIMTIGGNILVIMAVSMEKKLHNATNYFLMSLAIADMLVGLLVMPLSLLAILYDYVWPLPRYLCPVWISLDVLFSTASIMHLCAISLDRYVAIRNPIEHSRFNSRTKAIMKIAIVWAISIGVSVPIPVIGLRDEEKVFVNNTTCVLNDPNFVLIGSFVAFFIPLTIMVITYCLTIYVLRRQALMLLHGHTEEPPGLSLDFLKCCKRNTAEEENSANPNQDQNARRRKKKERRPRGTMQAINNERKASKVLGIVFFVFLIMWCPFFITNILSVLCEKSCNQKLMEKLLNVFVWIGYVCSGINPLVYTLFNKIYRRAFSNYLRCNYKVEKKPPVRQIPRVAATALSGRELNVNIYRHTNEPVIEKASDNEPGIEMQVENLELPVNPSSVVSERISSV

[17] = biological target: 5-hydroxytryptamine receptor 2A (Homo sapiens, UniProt P28223); assay: Binding affinity to 5HT2A receptor (unknown origin) assessed as inhibition constant
Sequence of 5-hydroxytryptamine receptor 2A (P28223 whole entry): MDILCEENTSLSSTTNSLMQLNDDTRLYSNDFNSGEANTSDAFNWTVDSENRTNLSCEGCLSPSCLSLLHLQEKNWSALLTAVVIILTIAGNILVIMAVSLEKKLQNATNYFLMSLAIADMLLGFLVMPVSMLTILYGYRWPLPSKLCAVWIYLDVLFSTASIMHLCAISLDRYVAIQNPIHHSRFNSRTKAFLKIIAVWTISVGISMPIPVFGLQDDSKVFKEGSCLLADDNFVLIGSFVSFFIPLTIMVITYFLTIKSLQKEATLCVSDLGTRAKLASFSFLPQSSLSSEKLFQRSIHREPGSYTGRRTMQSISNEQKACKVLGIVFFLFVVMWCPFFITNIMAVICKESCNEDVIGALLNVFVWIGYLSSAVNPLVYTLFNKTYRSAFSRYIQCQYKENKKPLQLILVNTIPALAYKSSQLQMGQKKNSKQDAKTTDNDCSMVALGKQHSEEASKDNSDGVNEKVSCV

[18] = biological target: 5-hydroxytryptamine receptor 2B (Homo sapiens, UniProt P41595); assay: Binding affinity to 5HT2B receptor (unknown origin) assessed as inhibition constant
Sequence of 5-hydroxytryptamine receptor 2B (P41595 whole entry): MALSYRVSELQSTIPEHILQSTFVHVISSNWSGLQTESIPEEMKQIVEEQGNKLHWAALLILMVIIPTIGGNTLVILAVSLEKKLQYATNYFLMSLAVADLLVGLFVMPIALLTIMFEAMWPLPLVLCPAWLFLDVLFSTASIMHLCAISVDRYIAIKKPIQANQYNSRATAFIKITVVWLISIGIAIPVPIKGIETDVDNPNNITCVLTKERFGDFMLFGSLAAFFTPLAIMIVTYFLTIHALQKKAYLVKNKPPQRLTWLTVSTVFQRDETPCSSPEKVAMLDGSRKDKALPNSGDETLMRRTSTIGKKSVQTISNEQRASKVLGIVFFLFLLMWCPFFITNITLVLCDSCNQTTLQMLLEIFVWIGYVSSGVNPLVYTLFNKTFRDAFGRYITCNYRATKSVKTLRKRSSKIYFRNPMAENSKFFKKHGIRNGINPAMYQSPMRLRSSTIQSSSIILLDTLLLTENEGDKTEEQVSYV

[19] = biological target: Adenosine receptor A1 (Homo sapiens, UniProt P30542); assay: Binding affinity to human adenosine A1 receptor assessed as inhibition constant
Sequence of Adenosine receptor A1 (Homo sapiens, UniProt P30542) (P30542 whole entry): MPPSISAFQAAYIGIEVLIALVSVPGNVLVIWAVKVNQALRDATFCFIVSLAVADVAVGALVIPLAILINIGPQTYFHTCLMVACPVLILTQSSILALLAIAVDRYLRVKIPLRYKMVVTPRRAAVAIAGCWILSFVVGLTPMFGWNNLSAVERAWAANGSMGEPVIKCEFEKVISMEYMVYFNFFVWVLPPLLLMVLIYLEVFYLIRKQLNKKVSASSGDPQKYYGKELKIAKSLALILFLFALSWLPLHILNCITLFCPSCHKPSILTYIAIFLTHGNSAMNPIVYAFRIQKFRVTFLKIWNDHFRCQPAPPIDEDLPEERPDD

IC50 [1]: 49 µM | IC50 [2]: 10 µM | IC50 [3]: > 1000 µM
Compound: Nc1ncnc2c1ncn2[C@H]1C[C@H](O)[C@@]2(CO)C[C@H]12

EC50 [4]: 0.4 nM | Efficacy ([5]; filed as agonist): 100%
Compound: CSc1nc(N)c2ncn([C@H]3[C@H](O)[C@H](O)[C@@]4(COP(=O)(O)OP(=O)(O)O)C[C@H]34)c2n1

IC50 [1]: 57 µM | IC50 [2]: 145 µM | IC50 [3]: 626 µM
Compound: Nc1ncnc2c1ncn2[C@]12C[C@H](O)[C@@H](CO)[C@@H]1C2

Ki [6]: 637 nM | Ki [7]: 42 nM | Activity [8]: 0% | Ki [9]: 786 nM | Ki [10]: 448 nM | Ki [11]: > 10 µM
Compound: CCOC(=O)[C@]12C[C@@H]1[C@@H](n1ccc3c(NC)nc(C#Cc4ccc(Cl)s4)nc31)[C@H](O)[C@@H]2O

inhibition [12]: 30%
Compound: Nc1ncnc2c1ncn2[C@H]1[C@H](O)[C@H](O)[C@]2(CO)C[C@H]12

inhibition [12]: 30%
Compound: Nc1ncnc2c1ncn2[C@@H]1C=C(CO)[C@@H](O)[C@H]1O

EC50 [4]: 8.4 nM | Efficacy [5]: 0%
Compound: CNc1nc(I)nc2c1ncn2[C@H]1C[C@H](OP(=O)(O)O)[C@@]2(COP(=O)(O)O)C[C@H]12

EC50 [4]: 18900 nM | Efficacy ([5]; filed as agonist): 50%
Compound: Nc1ncnc2c1ncn2[C@]12C[C@H](OP(=O)(O)O)[C@@H](COP(=O)(O)O)[C@@H]1C2

inhibition [12]: 30%
Compound: Nc1ncnc2c1ncn2[C@H]1[C@H](O)[C@H](O)[C@]2(CO)O[C@H]12

inhibition [12]: 30%
Compound: Nc1ncnc2c1ncn2[C@@H]1C[C@H](CO)[C@@H](O)[C@H]1O

Compound: Nc1ncnc2c1ncn2[C@H]1[C@H](O)[C@H](O)[C@@]2(CO)C[C@H]12
Ki [13]: > 50 µM | Ki [14]: 1680 nM | Ki [15]: 22.5 µM | Ki [10]: 404 nM

Compound: CNC(=O)[C@]12C[C@@H]1[C@@H](n1cnc3c(NC(C4CC4)C4CC4)nc(Cl)nc31)[C@H](O)[C@@H]2O
Ki [16]: 269 nM | Ki [17]: > 10 µM | Ki [18]: 23 nM

Ki [19]: > 10 µM
Compound: CNC(=O)[C@@]12C[C@@H]1[C@@H](n1cnc3c(NC)nc(C#Cc4ccc(F)s4)nc31)[C@H](O)[C@@H]2O

— ChEMBL document CHEMBL5233204, “Expanding the repertoire of methanocarba nucleosides from purinergic signaling to diverse targets” (RSC Med Chem, 2021)
